PubChem BioAssay (NCI)
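These data come from cells grown in 96-well plates and exposed to compound for 48 hours at five concentrations. TGI: total growth inhibition.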

Tests used:
Assay in all cases: NCI tumour cell line growth inhibition, 48 h
A549 NSCLC = tested on: A549 NSCLC
COLO 205 colon = tested on: COLO 205 colon
EKVX NSCLC = tested on: EKVX NSCLC
HCT-116 colon = tested on: HCT-116 colon
HOP-92 NSCLC = tested on: HOP-92 NSCLC
MOLT-4 leukemia = tested on: MOLT-4 leukemia
OVCAR-8 ovarian = tested on: OVCAR-8 ovarian
RXF 393 renal = tested on: RXF 393 renal
SF-295 CNS = tested on: SF-295 CNS
SF-539 CNS = tested on: SF-539 CNS
SK-MEL-2 melanoma = tested on: SK-MEL-2 melanoma
SN12C renal = tested on: SN12C renal
SNB-19 CNS = tested on: SNB-19 CNS
SNB-75 CNS = tested on: SNB-75 CNS
UACC-62 melanoma = tested on: UACC-62 melanoma

| SMILES | TGI (A549 NSCLC) [µM] | TGI (COLO 205 colon) [µM] | TGI (EKVX NSCLC) [µM] | TGI (HCT-116 colon) [µM] | TGI (HOP-92 NSCLC) [µM] | TGI (MOLT-4 leukemia) [µM] | TGI (OVCAR-8 ovarian) [µM] | TGI (RXF 393 renal) [µM] | TGI (SF-295 CNS) [µM] | TGI (SF-539 CNS) [µM] | TGI (SK-MEL-2 melanoma) [µM] | TGI (SN12C renal) [µM] | TGI (SNB-19 CNS) [µM] | TGI (SNB-75 CNS) [µM] | TGI (UACC-62 melanoma) [µM] |
| --- | --- | --- | --- | --- | --- | --- | --- | --- | --- | --- | --- | --- | --- | --- | --- |
| CC(=O)OCc1ncccc1C(OC(C)=O)OC(C)=O | > 100 | > 100 | > 100 | > 100 | > 100 | > 100 | > 100 | > 100 | > 100 | > 100 | > 100 | > 100 | > 100 | > 100 | > 100 |
| CC(=O)NC(CCCCN(Cc1ccccc1)C(=O)N(C)N=O)C(=O)NCc1ccccc1 (stereo not drawn) | > 100 | > 100 | > 100 | > 100 | > 100 | > 100 | > 100 | > 100 | > 100 | > 100 | > 100 | > 100 | > 100 | 86.9 | > 100 |
| COc1cc(CO)cc2c1[nH]c1ccccc12 | > 25 | > 25 | – | > 25 | > 25 | > 25 | > 25 | > 25 | – | > 25 | > 25 | > 25 | > 25 | – | > 25 |
| NC(=S)N/N=C(/CCN1CCCC1)CC(C1=C(O)C2=CCCCC2OC1=O)c1ccccc1 (stereo not drawn) | > 100 | > 100 | > 100 | > 100 | > 100 | – | > 100 | > 100 | > 100 | > 100 | > 100 | > 100 | > 100 | > 100 | > 100 |
| CCOc1cc2cnc3c4cc(OC)c(OC)cc4ccc3c2cc1OC | > 100 | > 100 | > 100 | > 100 | > 100 | > 100 | > 100 | > 100 | > 100 | > 100 | > 100 | > 100 | > 100 | > 100 | > 100 |
| CC(=O)Nc1ccc(S(=O)(=O)N/N=C(\C)CN2C(=O)c3ccccc3C2=O)cc1 | > 100 | > 100 | > 100 | > 100 | – | > 100 | > 100 | – | > 100 | > 100 | > 100 | > 100 | > 100 | > 100 | > 100 |
| O=C(c1nc2ccc(Cl)cc2[nH]c1=O)C(O)c1ccco1 (stereo not drawn) | > 100 | > 100 | > 100 | > 100 | > 100 | > 100 | – | > 100 | > 100 | > 100 | > 100 | – | > 100 | > 100 | > 100 |
| COc1ccc([C@H]2[C@@H]3CCc4ccccc4C3=NN2C(N)=S)cc1OC | > 100 | – | > 100 | > 100 | > 100 | > 100 | > 100 | > 100 | – | > 100 | > 100 | > 100 | > 100 | – | > 100 |
| Cc1ccc([N+](=O)[O-])cc1NC(=O)/C(CC(=O)c1sc(C(N)=S)nc1C)=N\N | > 100 | – | > 100 | > 100 | > 100 | > 100 | > 100 | > 100 | > 100 | > 100 | > 100 | – | > 100 | > 100 | > 100 |
| COC(=O)[C@H]1C2CC[C@@H]3C45C[C@@H](c6ccoc6)O[C@@H]4O[C@@H](O2)C31CCC5C (stereo partly drawn) | > 100 | > 100 | > 100 | > 100 | > 100 | > 100 | > 100 | – | > 100 | > 100 | > 100 | > 100 | > 100 | – | > 100 |
| CC1=C(c2ccccc2)CON(c2ccccc2)C1 | > 100 | > 100 | > 100 | 79.9 | – | > 100 | > 100 | 86.2 | > 100 | > 100 | > 100 | > 100 | > 100 | – | > 100 |
| O=C(Cc1ccccc1)N/N=C(/c1nc2ccc([N+](=O)[O-])cc2[nH]c1=O)C(O)c1ccco1 (stereo not drawn) | > 100 | > 100 | > 100 | > 100 | > 100 | > 100 | > 100 | – | > 100 | > 100 | > 100 | > 100 | – | > 100 | > 100 |
| CN(C)CCSC(=Nc1ccccc1)n1cccc1 | > 100 | > 100 | – | > 100 | 82.1 | > 100 | > 100 | > 100 | > 100 | > 100 | > 100 | > 100 | > 100 | 96.4 | > 100 |
| N#CC(C(=S)Nc1ccccc1)=C1Nc2ccccc2N1 | > 10 | > 10 | > 10 | > 10 | > 10 | > 10 | > 10 | – | – | > 10 | > 10 | > 10 | > 10 | > 10 | > 10 |
